These results are taken from publication PMC6412362 (2019).

For assay [1], the system named is 5GC (DNA, duplex) GCGCGCGCGC
The assay is described as follows: UV-Vis titration. To be noted: 100 mM KCl, 20 mM potassium phosphate; PBS 0.1 mM EDTA pH 6.8, 25 °C; 2 μM ligand; apparent.

For assay [2], the system named is AG3(T2AG3)3 (DNA, G4) AGGGTTAGGGTTAGGGTTAGGG
The assay is described as follows: CD melting at 290 nm. Conditions: 100 mM KCl, 20 mM potassium phosphate; PBS pH 6.8; 6 μM as printed for solutions; derived from two Tm.

For assay [3] the test system is unchanged. The assay is described as follows: fluorimetric titration, ligand fluorescence, Hill fit. Conditions: 100 mM KCl, 20 mM potassium phosphate; 25 °C; 1 μM ligand, DNA 0-3 μM; apparent; Hill n ≈ 2.
The test system is the same in assay [4]. The assay is described as follows: G4-FID fluorescent intercalator displacement. To be noted: 100 mM KCl, 20 mM potassium phosphate; PBS pH 6.8, 25 °C; thiazole orange displaced.
For assay [5], the system named is 5GC (DNA, duplex) GCGCGCGCGC
The assay is described as follows: G4-FID fluorescent intercalator displacement. Conditions: 100 mM KCl, 20 mM potassium phosphate; PBS pH 6.8, 25 °C; thiazole orange displaced.

Assay [6] deals with (G4T4G4)2 (DNA, G4) GGGGTTTTGGGG
The assay is described as follows: UV-Vis titration. To be noted: 100 mM KCl, 20 mM potassium phosphate, PBS pH 6.8, 25 °C.

For assay [7], the system named is (T2G5T)4 (DNA, G4) TTGGGGGT
The assay is described as follows: G4-FID fluorescent intercalator displacement. Conditions: 100 mM KCl, 20 mM potassium phosphate; PBS pH 6.8, 25 °C; thiazole orange displaced.

Assay [8] has as its system AG3(T2AG3)3 (DNA, G4) AGGGTTAGGGTTAGGGTTAGGG
The assay is described as follows: UV-Vis titration. To be noted: 100 mM KCl, 20 mM potassium phosphate; PBS 0.1 mM EDTA pH 6.8, 25 °C; 2 μM ligand; apparent.

For orientation: ΔTm means the change in melting temperature against a reference sample. On to `COc1cc[n+](-c2cc3c(cc2-[n+]2ccc(OC)cc2)-c2nc-3nc3nc(nc4[n-]c(nc5[n-]c(n2)c2cc(-[n+]6ccc(OC)cc6)c(-[n+]6ccc(OC)cc6)cc52)c2cc(-[n+]5ccc(OC)cc5)c(-[n+]5ccc(OC)cc5)cc42)-c2cc(-[n+]4ccc(OC)cc4)c(-[n+]4ccc(OC)cc4)cc2-3)cc1.[Zn+2]`, for which the KD result in assay [1] is “(4.74 ± 0.13) × 10^−4 M”; in assay [3] it was 74 nM; in assay [8] it was “(7.61 ± 0.11) × 10^−8 M”. Besides, the ΔTm in assay [2] was found to be 11.8 °C. Also, the results for the DC50 in assay [4], in assay [5] and in assay [7] were 1040 ± 280 nM, 1300 ± 210 nM and 1080 ± 80 nM, respectively. For the same molecule, the binding result in assay [6] (2 μM ligand, red shift 15 nm) was “yes”.

On to `C[n+]1ccc(-c2c3nc(c(-c4cc[n+](C)cc4)c4ccc([nH]4)c(-c4cc[n+](C)cc4)c4nc(c(-c5cc[n+](C)cc5)c5ccc2[nH]5)C=C4)C=C3)cc1`, for which the ΔTm in assay [2] was determined as 7.0 °C. In addition, the KD in assay [3] was 290 nM. Further, the DC50 came out at 1070 ± 90 nM in assay [4], 940 ± 200 nM in assay [5] and 1170 ± 200 nM in assay [7]. Moreover, the binding entry in assay [6] (red shift 13 nm) is listed as “yes”.

As for `C[n+]1ccc(Sc2cc3c(cc2Sc2cc[n+](C)cc2)-c2nc-3nc3nc(nc4[n-]c(nc5[n-]c(n2)c2cc(Sc6cc[n+](C)cc6)c(Sc6cc[n+](C)cc6)cc52)c2cc(Sc5cc[n+](C)cc5)c(Sc5cc[n+](C)cc5)cc42)-c2cc(Sc4cc[n+](C)cc4)c(Sc4cc[n+](C)cc4)cc2-3)cc1.[Zn+2]`, the KD entry in assay [1] was “(1.28 ± 0.17) × 10^−5 M”; in assay [3], 540 nM; in assay [8], “(9.58 ± 0.09) × 10^−6 M”. For the same molecule, the DC50 in assay [4] is 1950 ± 260 nM; in assay [5] it was 1930 ± 480 nM; in assay [7] it was 1840 ± 30 nM. Besides, the binding result in assay [6] (2 μM ligand, red shift 17 nm) is reported as “yes”.
